The values below come from ChEMBL document CHEMBL5236672, “Discovery of indole-piperazine derivatives as selective histone deacetylase 6 inhibitors with neurite outgrowth-promoting activities and neuroprotective activities” (Bioorg Med Chem Lett, 2023).

The test system of data set [1] is PC-12. The data set is described as follows: Neuroprotective activity in rat PC-12 cells assessed as increase in NGF-mediated neurite outgrowth at 1 to 10 uM incubated for 48 hrs by phase contrast microscopic analysis. The conditions noted are these: dose 1-10 µM. Format: functional, cell-based.
The next data set deals with Histone deacetylase 2 (Homo sapiens, UniProt Q92769). The experiment in a line: Inhibition of HDAC2 (unknown origin) using fluorogenic peptide RHKKAc-AMC as substrate by fluorescence-based assay.
Histone deacetylase 2, sequence (Q92769 whole entry): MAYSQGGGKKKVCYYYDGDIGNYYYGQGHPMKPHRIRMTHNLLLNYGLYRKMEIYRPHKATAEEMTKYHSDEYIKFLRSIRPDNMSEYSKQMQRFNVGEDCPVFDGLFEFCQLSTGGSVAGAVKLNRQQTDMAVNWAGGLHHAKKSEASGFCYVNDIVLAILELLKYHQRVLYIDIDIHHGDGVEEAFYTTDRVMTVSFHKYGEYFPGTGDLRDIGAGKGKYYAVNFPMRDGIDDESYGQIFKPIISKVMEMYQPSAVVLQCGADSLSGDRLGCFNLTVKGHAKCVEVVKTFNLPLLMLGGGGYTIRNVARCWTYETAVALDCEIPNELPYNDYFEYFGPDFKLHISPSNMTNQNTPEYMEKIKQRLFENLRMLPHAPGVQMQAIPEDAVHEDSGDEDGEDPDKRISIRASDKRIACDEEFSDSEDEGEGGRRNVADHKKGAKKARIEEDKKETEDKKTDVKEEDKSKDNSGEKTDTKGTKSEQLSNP
In a further data set the target is Histone deacetylase 5 (Homo sapiens, UniProt Q9UQL6). The data set is described as follows: Inhibition of HDAC5 (unknown origin) using trifluoroacetyl lysine as substrate by fluorescence-based assay.
Histone deacetylase 5, sequence (Q9UQL6 whole entry): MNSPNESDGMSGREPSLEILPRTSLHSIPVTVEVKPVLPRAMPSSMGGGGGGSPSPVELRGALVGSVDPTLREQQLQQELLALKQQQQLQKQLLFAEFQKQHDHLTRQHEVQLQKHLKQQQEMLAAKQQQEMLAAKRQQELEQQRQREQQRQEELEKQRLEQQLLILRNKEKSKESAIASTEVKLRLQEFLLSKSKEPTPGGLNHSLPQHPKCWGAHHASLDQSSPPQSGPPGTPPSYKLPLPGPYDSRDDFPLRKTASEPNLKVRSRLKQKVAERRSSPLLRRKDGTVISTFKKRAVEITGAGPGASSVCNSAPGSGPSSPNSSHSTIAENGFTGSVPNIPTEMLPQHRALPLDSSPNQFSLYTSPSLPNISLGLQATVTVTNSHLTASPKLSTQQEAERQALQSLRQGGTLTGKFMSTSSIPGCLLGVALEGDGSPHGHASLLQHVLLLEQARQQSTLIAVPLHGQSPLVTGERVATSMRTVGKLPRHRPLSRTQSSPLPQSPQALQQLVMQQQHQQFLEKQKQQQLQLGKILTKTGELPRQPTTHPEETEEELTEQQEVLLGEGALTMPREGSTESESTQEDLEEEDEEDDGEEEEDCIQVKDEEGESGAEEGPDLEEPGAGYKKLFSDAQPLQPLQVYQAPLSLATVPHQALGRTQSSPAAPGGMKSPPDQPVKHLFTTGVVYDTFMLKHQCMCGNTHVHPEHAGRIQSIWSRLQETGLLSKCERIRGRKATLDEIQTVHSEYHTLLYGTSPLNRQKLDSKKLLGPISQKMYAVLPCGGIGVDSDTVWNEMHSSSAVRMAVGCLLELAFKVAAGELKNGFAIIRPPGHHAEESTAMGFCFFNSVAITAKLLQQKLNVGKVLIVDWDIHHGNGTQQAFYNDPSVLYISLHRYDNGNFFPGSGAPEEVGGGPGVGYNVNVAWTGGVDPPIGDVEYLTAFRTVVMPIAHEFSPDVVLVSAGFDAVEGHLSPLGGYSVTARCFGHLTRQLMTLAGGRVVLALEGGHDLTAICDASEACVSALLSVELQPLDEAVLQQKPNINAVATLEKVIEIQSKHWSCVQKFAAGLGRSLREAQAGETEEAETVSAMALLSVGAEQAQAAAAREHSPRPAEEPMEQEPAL
In data set [2] the test system is PC-12. The data set is described as follows: Neuroprotective activity against H202-induced oxidative damage in rat PC-12 cells assessed as increase in cell viability at 1 to 10 uM. Format: functional, cell-based. As to conditions: dose 1-10 µM.
In data set [3] the test system is PC-12. The experiment in a line: Cytotoxicity against rat PC-12 cells assessed as reduction in cell viability at 10 uM. Format: toxicity, cell-based. The conditions noted are these: pc-12, 10 µM.
The target in the next data set is Histone deacetylase 1 (Homo sapiens, UniProt Q13547). The data set is described as follows: Inhibition of HDAC1 (unknown origin) using fluorogenic peptide RHKKAc-AMC as substrate by fluorescence-based assay.
Histone deacetylase 1, sequence (Q13547 whole entry): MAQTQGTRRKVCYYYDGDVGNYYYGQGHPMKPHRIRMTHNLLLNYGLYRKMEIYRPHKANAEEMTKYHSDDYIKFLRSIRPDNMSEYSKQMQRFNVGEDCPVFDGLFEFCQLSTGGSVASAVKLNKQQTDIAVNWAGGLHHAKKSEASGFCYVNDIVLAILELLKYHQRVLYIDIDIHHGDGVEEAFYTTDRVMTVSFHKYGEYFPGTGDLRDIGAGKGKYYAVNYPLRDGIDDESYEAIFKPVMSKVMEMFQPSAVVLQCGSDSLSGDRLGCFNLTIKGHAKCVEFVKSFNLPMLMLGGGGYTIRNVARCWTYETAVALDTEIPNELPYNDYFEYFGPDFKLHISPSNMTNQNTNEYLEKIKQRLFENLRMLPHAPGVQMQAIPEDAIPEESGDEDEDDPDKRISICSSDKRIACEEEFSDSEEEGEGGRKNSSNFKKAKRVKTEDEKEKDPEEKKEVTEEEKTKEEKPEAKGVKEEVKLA
For data set [4], the target named is T1, Protein deacetylase HDAC6 (Homo sapiens, UniProt Q9UBN7).
T1 sequence (Q9UBN7 whole entry): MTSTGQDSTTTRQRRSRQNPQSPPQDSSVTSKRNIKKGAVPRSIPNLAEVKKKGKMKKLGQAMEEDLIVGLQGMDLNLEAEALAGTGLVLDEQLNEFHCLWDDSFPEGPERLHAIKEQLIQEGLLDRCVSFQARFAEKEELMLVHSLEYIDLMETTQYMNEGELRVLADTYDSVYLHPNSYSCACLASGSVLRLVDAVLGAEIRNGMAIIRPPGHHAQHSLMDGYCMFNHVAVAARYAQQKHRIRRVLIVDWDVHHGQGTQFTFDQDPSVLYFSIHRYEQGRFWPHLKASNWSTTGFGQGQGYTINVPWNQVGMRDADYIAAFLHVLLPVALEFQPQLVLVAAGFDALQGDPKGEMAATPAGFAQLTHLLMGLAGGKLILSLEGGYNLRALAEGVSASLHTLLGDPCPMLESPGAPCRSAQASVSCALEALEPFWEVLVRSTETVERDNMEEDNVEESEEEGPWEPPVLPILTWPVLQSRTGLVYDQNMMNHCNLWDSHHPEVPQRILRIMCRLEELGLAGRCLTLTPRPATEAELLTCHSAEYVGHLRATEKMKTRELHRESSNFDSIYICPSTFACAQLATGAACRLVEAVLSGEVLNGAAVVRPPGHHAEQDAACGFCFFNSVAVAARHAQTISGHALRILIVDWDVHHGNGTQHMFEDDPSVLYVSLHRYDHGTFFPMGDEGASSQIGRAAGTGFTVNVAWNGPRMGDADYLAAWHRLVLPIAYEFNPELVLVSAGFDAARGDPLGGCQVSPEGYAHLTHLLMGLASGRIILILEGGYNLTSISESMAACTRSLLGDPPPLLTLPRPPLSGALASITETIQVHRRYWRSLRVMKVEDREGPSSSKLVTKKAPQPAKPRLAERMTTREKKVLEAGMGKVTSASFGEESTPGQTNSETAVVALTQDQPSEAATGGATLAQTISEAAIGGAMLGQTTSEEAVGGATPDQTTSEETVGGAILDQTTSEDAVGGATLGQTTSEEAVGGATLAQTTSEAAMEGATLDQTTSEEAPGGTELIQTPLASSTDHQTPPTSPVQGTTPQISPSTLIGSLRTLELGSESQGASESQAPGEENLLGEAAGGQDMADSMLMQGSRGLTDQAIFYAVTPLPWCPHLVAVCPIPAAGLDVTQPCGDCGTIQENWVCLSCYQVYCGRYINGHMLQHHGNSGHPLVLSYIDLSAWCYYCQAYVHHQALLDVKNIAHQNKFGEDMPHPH
The experiment in a line: Inhibition of HDAC6 (unknown origin) using fluorogenic peptide RHKKAc-AMC as substrate by fluorescence-based assay.

The target in a further data set is Histone deacetylase 3 (Homo sapiens, UniProt O15379). The experiment in a line: Inhibition of HDAC3 (unknown origin) using fluorogenic peptide RHKKAc-AMC as substrate by fluorescence-based assay.
Histone deacetylase 3, sequence (O15379 whole entry): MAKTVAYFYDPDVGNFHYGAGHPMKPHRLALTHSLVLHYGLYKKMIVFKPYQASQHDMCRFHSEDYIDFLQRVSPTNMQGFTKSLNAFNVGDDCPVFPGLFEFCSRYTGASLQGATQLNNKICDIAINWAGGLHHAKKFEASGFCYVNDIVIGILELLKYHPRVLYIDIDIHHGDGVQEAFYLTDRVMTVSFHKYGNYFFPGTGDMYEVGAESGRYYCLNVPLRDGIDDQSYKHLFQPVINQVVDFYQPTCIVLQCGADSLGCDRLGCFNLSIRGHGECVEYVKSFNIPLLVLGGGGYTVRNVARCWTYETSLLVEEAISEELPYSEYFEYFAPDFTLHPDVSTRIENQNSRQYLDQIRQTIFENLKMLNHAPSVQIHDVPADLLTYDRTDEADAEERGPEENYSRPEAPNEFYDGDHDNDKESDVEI
In data set [5] the test system is PC-12. The experiment in a line: Neuroprotective activity against H202-induced oxidative damage in rat PC-12 cells assessed as increase in cell viability at 10 uM. Format: functional.
The species entered for a further data set is Homo sapiens. The experiment in a line: Selectivity index, ratio of IC50 for inhibition of HDAC1 (unknown origin) to IC50 for inhibition of HDAC6 (unknown origin).
In data set [6] the test system is PC-12. The data set is described as follows: Neuroprotective activity in rat PC-12 cells assessed as increase in NGF-mediated neurite outgrowth at 3 uM incubated for 48 hrs by phase contrast microscopic analysis. Format: functional.
For data set [7], the system named is PC-12. The experiment in a line: Neuroprotective activity in rat PC-12 cells assessed as increase in NGF-mediated neurite outgrowth at 10 uM incubated for 48 hrs by phase contrast microscopic analysis. Format: functional.

The structures appear in SMILES notation. A value given as a limit tells only on which side of the number the result lay.

Regarding `Cc1cccc2c(C(=O)N3CCN(Cc4ccc(C(=O)NO)cc4)CC3)c[nH]c12`, the Activity entry is “Dose-Dependent Effect” in the data set with PC-12 [1]; “Dose-Dependent Effect” in the data set on PC-12 [2]; 39.1% with PC-12 [3]; 78.5% with PC-12 [5]; 34.7% in the data set with PC-12 [6]; 12.3% in the data set with PC-12 [7]. The IC50 was 2.25 µM against Histone deacetylase 2; over 50 µM against Histone deacetylase 5; 1.39 µM at Histone deacetylase 1; 0.0136 µM in [4]; 1.85 µM at Histone deacetylase 3. The Ratio IC50 in the data set listed under Homo sapiens was 102.
Turning to `O=C(NO)c1ccc(CN2CCN(C(=O)c3c[nH]c4ccccc34)CC2)cc1`, the IC50 on Histone deacetylase 1 came out at 1.26 µM; in data set [4] it was 0.0144 µM. The Ratio IC50 in the data set listed under Homo sapiens was 87. Further, in the data set on PC-12 [6], the Activity came out at 12.3%.
For `C=CCN1C(=O)CN(Cc2ccc(C(=O)NO)cc2)C(=O)C1Cc1ccccc1` (centres undefined), the Activity in the data set on PC-12 [6] came out at 12.3%.
For `O=C(NO)c1ccc(CN2CCN(C(=O)c3c[nH]c4cccc(Cc5ccccc5)c34)CC2)cc1`, the results for the Activity entry with PC-12 [1] and in the data set with PC-12 [6] were “Dose-Dependent Effect” and 31.8%, respectively. The IC50 on Histone deacetylase 1 is over 50 µM; in data set [4], 0.0785 µM.
As for `O=C(NO)c1ccc(CN2CCN(C(=O)c3cc4ccccc4[nH]3)CC2)cc1`, the IC50 in data set [4] was determined as 0.0885 µM.
As to `O=C(NO)c1ccc(CN2CCN(C(=O)c3c[nH]c4cc(F)ccc34)CC2)cc1`, the figures for the IC50 (against Histone deacetylase 1; in [4]) were 1.19 µM and 0.014 µM, respectively. The Ratio IC50 in the data set filed under Homo sapiens was 85. In addition, the Activity with PC-12 [6] was found to be 12.3%.
Regarding `O=C(NO)c1ccc(CN2CCN(C(=O)c3c[nH]c4cc(OCc5ccccc5)ccc34)CC2)cc1`, the Activity entry in the data set with PC-12 [1] was “Dose-Dependent Effect”; in the data set with PC-12 [3], “Toxic”; with PC-12 [6] it was 37.3%. Besides, the IC50 stood at 1.05 µM against Histone deacetylase 1 and 0.0234 µM in data set [4]. The Ratio IC50 in the data set listed under Homo sapiens came to 45.
On to `Cn1cc(C(=O)N2CCN(Cc3ccc(C(=O)NO)cc3)CC2)c2ccccc21`, for which the half-maximal inhibitory concentration (IC50) turned out to be 2.18 µM at Histone deacetylase 1 and 0.0552 µM in data set [4]. For the same compound, the Ratio IC50 in the data set filed under Homo sapiens worked out at 39. Further, in the data set on PC-12 [6], the Activity amounted to 27.5%.
With `CN1CCc2c(c3ccccc3n2Cc2ccc(C(=O)NO)cc2)C1`, the Activity entry in the data set on PC-12 [2] was “Dose-Dependent Effect”.
In the case of `O=C(NO)c1ccc(CN2CCN(C(=O)c3c[nH]c4ccc(Cl)cc34)CC2)cc1`, the IC50 was found to be 1.43 µM against Histone deacetylase 1 and 0.026 µM in data set [4]. For the same compound, the Ratio IC50 in the data set listed under Homo sapiens turned out to be 55. The Activity with PC-12 [6] was found to be 12.3%.
With `O=C1CN(Cc2ccc(C(=O)NO)cc2)C(=O)[C@@H](Cc2c[nH]c3ccccc23)N1`, in the data set on PC-12 [6], the Activity is on record as 12.3%.
The same measure, in the same setting: the same measure for `O=C(NO)c1ccc(CN2CC(=O)N(Cc3ccccc3)C(Cc3ccccc3)C2=O)cc1` (centres undefined): 12.3%; for `CN1C(=O)CN(Cc2ccc(C(=O)NO)cc2)C(=O)C1Cc1ccccc1` (centres undefined): 12.3%.
